Reference: ChEMBL document CHEMBL1152667, “Synthesis and radiopharmacological investigation of 3-[4'-[(18)F]fluorobenzylidene]indolin-2-one as possible tyrosine kinase inhibitor” (Bioorg Med Chem, 2009)

Columns and labels:
Pancreas [1] = assay: Biodistribution in Wistar rat pancreas at 1.7 MBq, iv administered as single dose measured after 10 mins post-injection by gamma counting; format: ADME, organism-based; conditions: in vivo
Pancreas [2] = assay: Biodistribution in Wistar rat pancreas at 1.7 MBq, iv administered as single dose measured after 30 mins post-injection by gamma counting; format: ADME, organism-based; conditions: in vivo, 0.5 h
Spleen [3] = assay: Biodistribution in Wistar rat spleen at 1.7 MBq, iv administered as single dose measured after 30 mins post-injection by gamma counting; format: ADME, organism-based; conditions: in vivo, 0.5 h
Lung = assay: Biodistribution in Wistar rat lung at 1.7 MBq, iv administered as single dose measured after 30 mins post-injection by gamma counting; format: ADME, organism-based; conditions: in vivo, 0.5 h
[4] = Metabolic stability in Wistar rat plasma assessed as compound remaining at 0.5 MBq after 60 mins by radio-HPLC analysis; format: ADME, cell-free; conditions: read-out: Stability
[5] = Metabolic stability in Wistar rat blood assessed as compound remaining at 30 MBq, iv after 20 mins by radio-HPLC analysis; format: ADME, organism-based; conditions: read-out: Stability
Blood [6] = assay: Metabolic stability in Wistar rat blood at 30 MBq, iv after 60 mins by radio-HPLC analysis; format: ADME, organism-based; conditions: in vivo, 1 h
Mus musculus = assay: Metabolic stability in mouse at 11 MBq, iv after 45 mins by radio-HPLC analysis; format: ADME, organism-based; conditions: in vivo, 0.75 h
Pancreas [7] = assay: Biodistribution in Wistar rat pancreas at 1.7 MBq, iv administered as single dose measured after 60 mins post-injection by gamma counting; format: ADME, organism-based; conditions: in vivo, 1 h
Thymus [8] = assay: Biodistribution in Wistar rat thymus at 1.7 MBq, iv administered as single dose measured after 60 mins post-injection by gamma counting; format: ADME, organism-based; conditions: in vivo, 1 h
Femur [9] = assay: Biodistribution in Wistar rat femur at 1.7 MBq, iv administered as single dose measured after 60 mins post-injection by gamma counting; format: ADME, organism-based; conditions: in vivo, 1 h
[10] = Ratio of drug level in kidney to blood in Wistar rat at 1.7 MBq, iv administered as single dose measured after 60 mins post-injection; format: ADME, organism-based
[11] = Biodistribution in Wistar rat brown adipose tissue assessed as standard uptake value at 1.7 MBq, iv administered as single dose measured after 30 mins post-injection by gamma counting; format: ADME, organism-based; conditions: in vivo, 0.5 h
[12] = Biodistribution in Wistar rat hair/skin assessed as standard uptake value at 1.7 MBq, iv administered as single dose measured after 30 mins post-injection by gamma counting; format: ADME, organism-based; conditions: in vivo, 0.5 h
[13] = Biodistribution in Wistar rat brown adipose tissue assessed as standard uptake value at 1.7 MBq, iv administered as single dose measured after 1 min post-injection by gamma counting; format: ADME, organism-based; conditions: in vivo
[14] = Biodistribution in Wistar rat hair/skin assessed as standard uptake value at 1.7 MBq, iv administered as single dose measured after 1 min post-injection by gamma counting; format: ADME, organism-based; conditions: in vivo
Spleen [15] = assay: Biodistribution in Wistar rat spleen assessed as standard uptake value at 1.7 MBq, iv administered as single dose measured after 1 min post-injection by gamma counting; format: ADME, organism-based; conditions: in vivo
Adrenal gland = assay: Biodistribution in Wistar rat adrenal gland assessed as standard uptake value at 1.7 MBq, iv administered as single dose measured after 1 min post-injection by gamma counting; format: ADME, organism-based; conditions: in vivo
Kidney = assay: Biodistribution in Wistar rat kidney assessed as standard uptake value at 1.7 MBq, iv administered as single dose measured after 1 min post-injection by gamma counting; format: ADME, organism-based; conditions: in vivo
Muscle tissue [16] = assay: Biodistribution in Wistar rat muscle assessed as standard uptake value at 1.7 MBq, iv administered as single dose measured after 1 min post-injection by gamma counting; format: ADME, organism-based; conditions: in vivo
Thymus [17] = assay: Biodistribution in Wistar rat thymus assessed as standard uptake value at 1.7 MBq, iv administered as single dose measured after 1 min post-injection by gamma counting; format: ADME, organism-based; conditions: in vivo
Blood [18] = assay: Biodistribution in Wistar rat blood assessed as standard uptake value at 1.7 MBq, iv administered as single dose measured after 5 mins post-injection by gamma counting; format: ADME, organism-based; conditions: in vivo
Muscle tissue [19] = assay: Biodistribution in Wistar rat muscle assessed as standard uptake value at 1.7 MBq, iv administered as single dose measured after 30 mins post-injection by gamma counting; format: ADME, organism-based; conditions: in vivo, 0.5 h
Thymus [20] = assay: Biodistribution in Wistar rat thymus assessed as standard uptake value at 1.7 MBq, iv administered as single dose measured after 30 mins post-injection by gamma counting; format: ADME, organism-based; conditions: in vivo, 0.5 h
Harderian gland = assay: Biodistribution in Wistar rat harderian gland assessed as standard uptake value at 1.7 MBq, iv administered as single dose measured after 30 mins post-injection by gamma counting; format: ADME, organism-based; conditions: in vivo, 0.5 h
Pancreas [21] = assay: Biodistribution in Wistar rat pancreas assessed as standard uptake value at 1.7 MBq, iv administered as single dose measured after 60 mins post-injection by gamma counting; format: ADME, organism-based; conditions: in vivo, 1 h
Spleen [22] = assay: Biodistribution in Wistar rat spleen assessed as standard uptake value at 1.7 MBq, iv administered as single dose measured after 60 mins post-injection by gamma counting; format: ADME, organism-based; conditions: in vivo, 1 h
Thymus [23] = assay: Biodistribution in Wistar rat thymus assessed as standard uptake value at 1.7 MBq, iv administered as single dose measured after 60 mins post-injection by gamma counting; format: ADME, organism-based; conditions: in vivo, 1 h
[24] = Biodistribution in Wistar rat thyroid gland assessed as standard uptake value at 1.7 MBq, iv administered as single dose measured after 60 mins post-injection by gamma counting; format: ADME, organism-based; conditions: in vivo, 1 h
Liver = assay: Biodistribution in Wistar rat liver assessed as standard uptake value at 1.7 MBq, iv administered as single dose measured after 60 mins post-injection by gamma counting; format: ADME, organism-based; conditions: in vivo, 1 h
[25] = Biodistribution in Wistar rat adipose tissue assessed as standard uptake value at 1.7 MBq, iv administered as single dose measured after 5 mins post-injection by gamma counting; format: ADME, organism-based; conditions: in vivo
Thymus [26] = assay: Biodistribution in Wistar rat thymus assessed as standard uptake value at 1.7 MBq, iv administered as single dose measured after 5 mins post-injection by gamma counting; format: ADME, organism-based; conditions: in vivo
[27] = Biodistribution in Wistar rat thyroid gland assessed as standard uptake value at 1.7 MBq, iv administered as single dose measured after 5 mins post-injection by gamma counting; format: ADME, organism-based; conditions: in vivo
[28] = Biodistribution in Wistar rat brown adipose tissue assessed as standard uptake value at 1.7 MBq, iv administered as single dose measured after 10 mins post-injection by gamma counting; format: ADME, organism-based; conditions: in vivo
Brain = assay: Biodistribution in Wistar rat brain assessed as standard uptake value at 1.7 MBq, iv administered as single dose measured after 10 mins post-injection by gamma counting; format: ADME, organism-based; conditions: in vivo
Pancreas [29] = assay: Biodistribution in Wistar rat pancreas at 1.7 MBq, iv administered as single dose measured after 1 min post-injection by gamma counting; format: ADME, organism-based; conditions: in vivo
[30] = Biodistribution in Wistar rat thyroid gland at 1.7 MBq, iv administered as single dose measured after 1 min post-injection by gamma counting; format: ADME, organism-based; conditions: in vivo
[31] = Biodistribution in Wistar rat adipose tissue assessed as standard uptake value at 1.7 MBq, iv administered as single dose measured after 10 mins post-injection by gamma counting; format: ADME, organism-based; conditions: in vivo
Thymus [32] = assay: Biodistribution in Wistar rat thymus assessed as standard uptake value at 1.7 MBq, iv administered as single dose measured after 10 mins post-injection by gamma counting; format: ADME, organism-based; conditions: in vivo
Femur [33] = assay: Biodistribution in Wistar rat femur at 1.7 MBq, iv administered as single dose measured after 1 min post-injection by gamma counting; format: ADME, organism-based; conditions: in vivo
Testes = assay: Biodistribution in Wistar rat testes at 1.7 MBq, iv administered as single dose measured after 1 min post-injection by gamma counting; format: ADME, organism-based, Testis; conditions: in vivo
[34] = Biodistribution in Wistar rat urine at 1.7 MBq, iv administered as single dose measured after 1 min post-injection by gamma counting; format: ADME, organism-based; conditions: in vivo

O=C1Nc2ccccc2/C1=C/c1ccc([18F])cc1
Drug uptake (Pancreas [1]): 0.28 %ID
Drug uptake (Pancreas [2]): 0.11 %ID
Drug uptake (Spleen [3]): 0.08 %ID
Drug uptake (Lung): 0.33 %ID
remaining at 1 h, 0.5 MBq [4]: 96%
remaining at 20 min [5]: 12%
Stability (Blood [6]): Unstable
Stability (Mus musculus): Unstable
Drug uptake (Pancreas [7]): 0.07 %ID
Drug uptake (Thymus [8]): 0.05 %ID
Drug uptake (Femur [9]): 0.11 %ID
Kp at 1 h [10]: 7.6
SUV [11]: 0.98%
SUV [12]: 0.48%
SUV [13]: 1.42%
SUV [14]: 0.67%
SUV (Spleen [15]): 0.98%
SUV (Adrenal gland): 4.95%
SUV (Kidney): 3.36%
SUV (Muscle tissue [16]): 0.82%
SUV (Thymus [17]): 1.1%
SUV (Blood [18]): 0.56%
SUV (Muscle tissue [19]): 0.45%
SUV (Thymus [20]): 0.26%
SUV (Harderian gland): 1.07%
SUV (Pancreas [21]): 0.3%
SUV (Spleen [22]): 0.13%
SUV (Thymus [23]): 0.13%
SUV [24]: 0.16%
SUV (Liver): 1.3%
SUV [25]: 1.21%
SUV (Thymus [26]): 0.82%
SUV [27]: 0.99%
SUV [28]: 1.83%
SUV (Brain): 0.97%
Drug uptake (Pancreas [29]): 0.56 %ID
Drug uptake [30]: 0.09 %ID
SUV [31]: 1.26%
SUV (Thymus [32]): 0.53%
Drug uptake (Femur [33]): 0.44 %ID
Drug uptake (Testes): 0 %ID
Drug uptake [34]: 3.97 %ID
